Assay results as given in patent US5481021A, “Phenyl amidines derivatives useful as platelet aggregation inhibitors” (G. D. Searle & Co., priority 1994, dated 1996).
pIC50: −log10 of the molar value.

What was measured:
[1] = system: Platelet aggregation in dog PRP; assay: In-Vitro Platelet Aggregation in PRP (ADP induced); assay type: cell-based; conditions: Canis lupus familiaris; for pIC50: ADP 50 μm, 37° C.; for inhibition at 10 µM: ADP, test concentration 1 × 10^-5
Protocol: In-Vitro Platelet Aggregation in PRP
(§1) Healthy male or female dogs were fasted for 8 hours prior to drawing blood; then 30 ml whole blood was collected using a butterfly needle and 30 cc plastic syringe with 3 ml of 0.129M buffered sodium citrate (3.8%). The syringe was rotated carefully as blood was drawn to mix the citrate. Platelet-rich plasma (PRP) was prepared by centrifugation at 975×g for 3.17 minutes at room temperature, allowing the centrifuge to coast to a stop without braking. The PRP was removed from the blood with a plastic pipette and placed in a plastic capped, 50 ml Corning conical sterile centrifuge tube which was held at room temperature. Platelet poor plasma (PPP) was prepared by centrifuging the remaining blood at 2000×g for 15 minutes at room temperature allowing the centrifuge to coast to a stop without braking. The PRP was adjusted with PPP to a count of 2-3×10^8 platelets per ml. 400 for 5-(p-cyanophenyl)pentanoic acid in Section C of Example 1.
as §1, with “400 μl of the PRP preparation and 50 μl of the compound to be tested or saline were preincubated” for “400”, “1 minute at 37° C.” for “5-(p-cyanophenyl)pentanoic acid”, “a BioData aggregometer (BioData, Horsham, Pa.). 50 μl” for “Section C”, “adenosine 5'diphosphate (ADP) (50 μm final concentration) was added to the cuvettes and the aggregation was monitored for 1 minute. All compounds are tested in duplicate. Results are calculated as follows:” for “Example 1.”
Percent of control=[(maximal OD minus initial OD of compound) divided by
(maximal OD minus initial OD of control saline)]×100. The %
inhibition=100-(percent of control).

[2] = target: T1, fibrinogen binding to platelets (gpIIb/IIIa) (Homo sapiens, UniProt P05106+P08514); assay: Fibrinogen Binding Assay (125I-fibrinogen binding to ADP-activated platelets); conditions: ADP 10 μM, 125I-fibrinogen 0.3 μM, 40 min at 37° C., read-out: Human Fg binding IC50
T1 construct: endogenous in cells
Protocol: Fibrinogen binding was performed essentially as described by Plow et al., Blood 70, 110-115 (1987). Briefly, blood from humans who had not been given any antiplatelet drugs in the previous two weeks was collected into 1/10th volume of CCD buffer (100 mM sodium citrates, 136 mM glucose, pH 6.5). The blood was centrifuged for 3 min at 1000×g and platelet rich plasma was transferred to a plastic tube with a plastic pipet and placed on ice. After 15 minutes, 1/2 volume of ice cold CCD buffer was added and the sample was centrifuged at 900×g for 10 min at 2° C. The supernatant was decanted and the platelet pellet was gently resuspended in 1/2 the original volume of ice cold modified Tyrode's buffer (137 mM NaCl, 2.6 mM KCl, 12 mM NaHCO3, 5.5 mM glucose, 15 mM HEPES, 0.5% BSA, pH 7.4). After incubating for 30 minutes at 37° C., the platelet count was adjusted to 4×10^8 platelets/ml with modified Tyrode's buffer. To test samples (final concentration=1×10^8 platelets/ml) were added in sequence: ADP (10 μM), CaCl2 (2 mM), test compound, and ^125 I-fibrinogen (0.3 μM) to the aforesaid final concentrations in a volume of 200 μl. The samples were incubated for 40 min at 37° C. and 50 μl aliquots were centrifuged at 8,000×g through a 20% sucrose solution (400 μl). The tubes were quick frozen and the tips containing the platelet pellet were cut and assayed for bound ^125 I-fibrinogen by gamma scintillation counting. Specific binding was determined in each test by subtracting from the total binding the amount of ^125 I-fibrinogen bound in the presence of a 60-fold excess of unlabeled fibrinogen.

[3] = system: ex vivo collagen induced platelet aggregation; assay: Inhibition of ex vivo collagen induced aggregation; assay type: in vivo, dog (Beagle); conditions: dog
Protocol: INHIBITION OF EX VIVO COLLAGEN INDUCED AGGREGATION BY COMPOUNDS OF THE INVENTION
PURPOSE--The purpose of this assay is to determine the effects of antiplatelet compounds on ex vivo collagen induced platelet aggregation when administered either intravenously or orally to dogs.
Pretreatment (control) blood samples are drawn from either conscious or anesthetized dogs (Beagles) and centrifuged to prepare platelet rich plasma (PRP). Aggregatory response to collagen is measured in an aggregometer and used as Control. Compounds are administered, either intragasterically (either by capsule or stomach tube or intravenously. Blood samples are drawn at predetermined intervals after compound administration, PRP prepared and aggregation to collagen determined. Compound inhibition of aggregation is determined by comparing the aggregation response after compound administration to the pretreatment response. The study is continued for a maximum of 24 hours or until the platelet aggregation returns to control levels. (If aggregation is still inhibited after 7 hours, a blood sample is drawn the following morning and tested.) Duration of activity is determined by the length of time platelet aggregation is inhibited after compound administration.

T1 sequence (P08514 32-887 limits assumed): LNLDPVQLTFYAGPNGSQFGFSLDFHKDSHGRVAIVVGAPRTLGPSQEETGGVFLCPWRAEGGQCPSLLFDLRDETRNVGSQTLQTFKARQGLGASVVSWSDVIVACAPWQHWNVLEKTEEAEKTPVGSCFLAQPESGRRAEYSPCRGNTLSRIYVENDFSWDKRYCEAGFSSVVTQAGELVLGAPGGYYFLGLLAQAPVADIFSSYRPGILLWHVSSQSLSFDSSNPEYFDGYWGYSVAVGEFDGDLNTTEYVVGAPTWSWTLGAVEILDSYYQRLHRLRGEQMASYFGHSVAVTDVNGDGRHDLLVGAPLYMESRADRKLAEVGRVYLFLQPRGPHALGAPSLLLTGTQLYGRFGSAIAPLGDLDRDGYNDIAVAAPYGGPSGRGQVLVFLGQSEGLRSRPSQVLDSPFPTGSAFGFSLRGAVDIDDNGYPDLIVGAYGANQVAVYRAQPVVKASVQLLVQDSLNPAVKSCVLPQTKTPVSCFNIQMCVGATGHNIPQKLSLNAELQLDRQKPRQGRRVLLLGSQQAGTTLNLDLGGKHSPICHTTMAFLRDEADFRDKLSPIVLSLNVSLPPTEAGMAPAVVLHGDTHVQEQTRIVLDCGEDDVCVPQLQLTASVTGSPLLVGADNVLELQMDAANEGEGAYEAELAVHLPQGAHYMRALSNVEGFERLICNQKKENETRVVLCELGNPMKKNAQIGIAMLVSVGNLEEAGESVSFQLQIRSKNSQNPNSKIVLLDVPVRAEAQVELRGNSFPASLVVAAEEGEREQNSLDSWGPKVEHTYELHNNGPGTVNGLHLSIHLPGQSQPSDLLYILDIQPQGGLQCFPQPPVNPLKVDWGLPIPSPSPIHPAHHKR
T1 sequence (P08514 891-1039 partner limits assumed): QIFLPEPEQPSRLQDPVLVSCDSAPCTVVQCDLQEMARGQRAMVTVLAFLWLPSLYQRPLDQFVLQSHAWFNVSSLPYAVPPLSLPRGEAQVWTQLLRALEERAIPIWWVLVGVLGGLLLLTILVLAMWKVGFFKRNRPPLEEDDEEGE
T1 sequence (P05106 27-788): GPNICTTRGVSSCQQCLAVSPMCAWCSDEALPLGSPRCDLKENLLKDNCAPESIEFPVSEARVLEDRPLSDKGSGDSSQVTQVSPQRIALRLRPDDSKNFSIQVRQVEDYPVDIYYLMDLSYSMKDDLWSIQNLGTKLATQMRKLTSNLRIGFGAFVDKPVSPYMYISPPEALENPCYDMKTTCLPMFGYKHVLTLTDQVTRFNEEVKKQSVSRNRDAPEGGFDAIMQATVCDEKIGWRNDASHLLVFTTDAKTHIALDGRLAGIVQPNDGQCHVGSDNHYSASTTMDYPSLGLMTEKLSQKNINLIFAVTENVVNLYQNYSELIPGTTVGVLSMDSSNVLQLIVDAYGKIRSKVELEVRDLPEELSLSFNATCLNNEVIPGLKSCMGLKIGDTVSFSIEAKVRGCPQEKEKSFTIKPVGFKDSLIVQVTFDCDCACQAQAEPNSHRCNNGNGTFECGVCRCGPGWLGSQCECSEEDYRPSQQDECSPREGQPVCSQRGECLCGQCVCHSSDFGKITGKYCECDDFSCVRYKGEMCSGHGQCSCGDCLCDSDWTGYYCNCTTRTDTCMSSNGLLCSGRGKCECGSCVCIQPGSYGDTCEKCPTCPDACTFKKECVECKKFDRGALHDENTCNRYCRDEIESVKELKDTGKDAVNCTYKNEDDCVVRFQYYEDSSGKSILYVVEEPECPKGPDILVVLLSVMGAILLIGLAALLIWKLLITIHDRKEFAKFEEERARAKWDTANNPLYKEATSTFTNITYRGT

SMILES	pIC50 [1]	inhibition at 10 µM [1]	pIC50 [2]	Ex-vivo collagen induced aggregation, Max % Inhibition ([3]; .025 mg/kg, IG)	Ex-vivo collagen induced aggregation, Max % Inhibition ([3]; 0.1 mg/kg, IV)
CN(C(=O)[C@H](CC(=O)O)NC(=O)CCCCc1ccc(C(=N)N)cc1)[C@@H](Cc1ccccc1)C(=O)O [N-[N-[5-[4-(aminoiminomethyl)phenyl]-1-oxopentyl]-L-α-aspartyl]-N-methyl-L-phenylalanine]	5.82	100%			
CN(CC(=O)N[C@@H](CC(=O)O)C(=O)N[C@@H](Cc1ccccc1)C(=O)O)C(=O)CCc1ccc(C(=N)N)cc1 [N-[N-[2-[[3-[4-(aminoiminomethyl)phenyl]-1-oxopropyl]methylamino] -1-oxoethyl]-L-α-aspartyl]-L-phenylalanine]	6.15	100%			
N=C(N)c1ccc(/C=C/CCC(=O)N[C@@H](CC(=O)O)C(=O)N[C@@H](Cc2ccccc2)C(=O)O)cc1 [N-[5-[4-(aminoiminomethyl)phenyl]-1-oxo-4E-pentenyl]-N-L-α-aspartyl-L-phenylalanine]	7.09	100%	8.15		
N=C(N)c1ccc(CCCCC(=O)N[C@@H](CC(=O)O)C(=O)N(CCC(=O)O)Cc2ccccc2)cc1 [3S-[[5-[4-(aminoiminomethyl)phenyl]-1-oxopentyl]amino]-4-[(2-carboxyethyl)(phenylmethyl)amino]-4-oxobutanoic acid]	5.37	100%			
N=C(N)c1cccc(CCCCC(=O)N[C@@H](CC(=O)O)C(=O)N[C@@H](Cc2ccccc2)C(=O)O)c1 [N-[N-[5-[3-(aminoiminomethyl)phenyl-1-oxopentyl]-L-α-aspartyl]-L-phenylalanine]		25%			
COc1ccc(CCN(CCC(=O)O)C(=O)[C@H](CC(=O)O)NC(=O)CCCCc2ccc(C(=N)N)cc2)cc1 [3S-[[5-[4-(aminoiminomethyl)phenyl]-1-oxopentyl)amino]-4-[(2-carboxyethyl)(2-(4-methoxyphenyl)ethyl]amino]-4-oxobutanoic acid]		66%			
N=C(N)c1ccc(CCCCC(=O)N[C@@H](CC(=O)O)C(=O)NCCc2ccccc2)cc1 [3 S-[[5-[4-(aminoiminomethyl)phenyl]-1-oxopentyl]amino]-4-oxo-4-[(2-phenylethyl)amino]butanoic acid]	5.72	100%	6.70		
COC(=O)C[C@H](NC(=O)CCCCc1ccc(C(=N)N)cc1)C(=O)N[C@@H](Cc1ccccc1)C(=O)OC [N-[5-[4-(aminoiminomethyl)phenyl]-1-oxopentyl]-N-L-α-aspartyl-L-phenylalanine, dimethyl ester]	6.40	100%			
N=C(N)c1ccc(CC(=O)CCC(=O)N[C@@H](CC(=O)O)C(=O)N[C@@H](Cc2ccccc2)C(=O)O)cc1 [N-[N-[5-[4-(aminoiminomethyl)phenyl]-1,4-dioxopentyl]-L-α-aspartyl]-L-phenylalanine]	6.74	100%			
CC(C)CN(CCC(=O)O)C(=O)[C@H](CC(=O)O)NC(=O)CCCCc1ccc(C(=N)N)cc1 [3S-[[5-[4-(aminoiminomethyl)phenyl]-1-oxopentyl]amino]-4-[(2-carboxyethyl)(2-methylpropyl)amino]-4-oxobutanoic acid]		14%			
N=C(N)c1ccc2cc(OCC(=O)N[C@@H](CC(=O)O)C(=O)N[C@@H](Cc3ccccc3)C(=O)O)ccc2c1 [N-[N-[2-[[6-(aminoiminomethyl)-2-naphthalenyl]oxy]-1-oxoethyl]-L-α-aspartyl]-L-phenylalanine]	5.96	100%			
N=C(N)c1ccc(CCCCC(=O)N[C@@H](CC(=O)O)C(=O)N(CCC(=O)O)CCc2ccccc2)cc1 [3S-[[5-[4-(Aminoiminomethyl)phenyl]-1-oxopentyl]amino]-4-[(2-carboxyethyl)(2-phenylethyl)amino]-4-oxobutanoic acid]	5.00	53%			
N=C(N)c1ccc2cc(CCC(=O)N[C@@H](CC(=O)O)C(=O)N[C@@H](Cc3ccccc3)C(=O)O)ccc2c1 [N-[N-[3-[6-(aminoiminomethyl)-2-naphthalenyl]-1-oxopropyl]-L-α-aspartyl]-L-phenylalanine]	5.26	100%			
N=C(N)c1ccc(CCCC(=O)N[C@@H](CC(=O)O)C(=O)N[C@@H](Cc2ccccc2)C(=O)O)cc1 [N-[N-[4-[4-(aminoiminomethyl)phenyl]-1-oxobutyl]-L-α-aspartyl]-L-phenylalanine]		4%			
COc1ccc(CCNC(=O)[C@H](CC(=O)O)NC(=O)CCCCc2ccc(C(=N)N)cc2)cc1 [3S [[5-[4-(aminoiminomethyl)phenyl]-1-oxopentyl]amino]-4-[[2-4-(methoxyphenyl)ethyl]amino]-4-oxobutanoic acid]	6.38	100%			
CCOC(=O)C[C@H](NC(=O)CCCCc1ccc(C(=N)N)cc1)C(=O)N[C@@H](Cc1ccccc1)C(=O)OCC [N-[N-[5-[4-(aminoiminomethyl)phenyl]-1-oxopentyl]-L-α-aspartyl]-L-phenylalanine, diethyl ester]				39%	
CC(C)[C@H](NC(=O)[C@H](CC(=O)O)NC(=O)CCCCc1ccc(C(=N)N)cc1)C(=O)O [N-[5-[4-(aminoiminomethyl)phenyl]-1-oxopentyl]-N-L-α-aspartyl-L-valine]	6.89	100%			
CC(C)CNC(=O)[C@H](CC(=O)O)NC(=O)CCCCc1ccc(C(=N)N)cc1 [3S-[[5-[4-(aminoiminomethyl)phenyl]-1-oxopentyl]amino]-4-[(2-methylpropyl)amino]-4-oxobutanoic acid]	6.15	100%			100%
N=C(N)c1ccc(CCCCC(=O)N[C@@H](CC(=O)O)C(=O)NCCc2c[nH]c3ccccc23)cc1 [3S-[[5-[4-(aminoiminomethyl)phenyl]-1-oxopentyl]amino]-4-[[2-(1H-indol-3-yl)ethyl]amino]-4-oxobutanoic acid]	6.55	100%			
N=C(N)c1ccc(/C=C\CCC(=O)N[C@@H](CC(=O)O)C(=O)N[C@@H](Cc2ccccc2)C(=O)O)cc1 [N-[N-[5-[4-(aminoiminomethyl)phenyl]-1-oxo-4Z-pentenyl]-L-α-aspartyl]-L-phenylalanine]	6.22	100%			
N=C(N)c1ccc(CC(O)CCC(=O)N[C@@H](CC(=O)O)C(=O)N[C@@H](Cc2ccccc2)C(=O)O)cc1 (stereo partly drawn) [N-[N-[5-[4-(aminoiminomethyl)phenyl]-4-hydroxy-1-oxopentyl]-L-α-aspartyl]-L-phenylalanine]		15%			
